# Measured values from patent US9890133B2 (priority 2011, dated 2018).
# Columns and labels:
# [1] = in vitro; conditions: human
# [2] = tested on: Poliovirus 3; test: microbe, parasite or virus in culture; type: cell-based; conditions: Enterovirus C, read-out: Poliovirus3 EC50
SMILES,melting point [°C],CC50 ([1]; Picorana CC50) [µg/mL],EC50 [2] [µg/mL],CC50 [1] [µg/mL]
CCOC(=O)N[C@@]12C(=O)c3ccccc3[C@]1(O)Oc1cc(C(C)C)ccc12,115 to 118,–,–,–
"CC(=O)O[C@@]12Oc3cc(C(C)C)ccc3[C@]1(OC(C)=O)C(=O)c1c(NS(C)(=O)=O)cccc12 (stereo in doubt) [Example 54, acetic acid 4b-acetoxy-7-isopropyl-1-methanesulfonylamino-10-oxo-4b,10-dihydro-5-oxa-indeno[2,1-a]inden-9b-yl ester]",96 to 100,> 50,–,–
"Cc1ccc2c(c1)OC1(O)c3ccccc3C(=O)C21O (stereo not drawn) [Example 1, 4b,9b-Dihydroxy-7-methyl-4bH-benzo[d]indeno[1,2-b]furan-10(9bH)-one]",145 to 147,> 50,–,–
"CC(=O)OC12Oc3cc(C)ccc3C1(OC(C)=O)C(=O)c1ccccc12 (stereo not drawn) [Example 2, 7-Methyl-10-oxo-9b,10-dihydro-4bH-benzo[d]indeno[1,2-b]furane-4b,9b-diyl diacetate]",167 to 169,> 50,–,–
"CCOC(=O)Cc1cc(OC)c2c(c1)C1(O)C(=O)c3ccccc3C1(O)O2 (stereo not drawn) [Example 3, Ethyl 2-(4b,9b-dihydroxy-6-methoxy-10-oxo-9b,10-dihydro-4bH-benzo[d]indeno[1,2-b]furane-8-yl)acetate]",133 to 136,> 50,–,–
"Cc1cc2c(cc1C)C1(O)C(=O)c3ccccc3C1(O)O2 (stereo not drawn) [Example 4, 4b,9b-dihydroxy-7,8-dimethyl-4bH-benzo[d]indeno[1,2-b]furan-10(9bH)-one]",198 to 200,> 50,–,–
"COc1ccc2c(c1)OC1(O)c3ccccc3C(=O)C21O (stereo not drawn) [Example 7, 4b,9b-Dihydroxy-7-methoxy-4bH-benzo[d]indeno[1,2-b]furan-10(9bH)-one]",98 to 100,> 50,–,–
"O=C1c2ccccc2C2(O)Oc3c(ccc(Cl)c3Cl)C12O (stereo not drawn) [Example 8, 6,7-Dichloro-4b,9b-dihydroxy-4bH-benzo[d]indeno[1,2-b]furan-10(9bH)-one]",142 to 150,44.1,–,–
"CCc1ccc2c(c1)OC1(O)c3ccccc3C(=O)C21O (stereo not drawn) [Example 9, 7-Ethyl-4b,9b-dihydroxy-4bH-benzo[d]indeno[1,2-b]furan-10(9bH)-one]",168 to 169,18,–,–
"CC(=O)OC12Oc3cc(C(C)C)ccc3C1(OC(C)=O)C(=O)c1ccccc12 (stereo not drawn) [Example 11, 7-Isopropyl-10-oxo-9b,10-dihydro-4bH-benzo[d]indeno[1,2-b]furane-4b,9b-diyl diacetate]",138 to 140,16.2,–,–
"COc1ccc2c(c1)C1(O)C(=O)c3ccccc3C1(O)O2 (stereo not drawn) [Example 12, 4b,9b-Dihydroxy-8-methoxy-4bH-benzo[d]indeno[1,2-b]furan-10(9bH)-one]",186 to 189,> 50,–,–
"O=C1c2ccccc2C2(O)Oc3c(-c4ccccc4)cccc3C12O (stereo not drawn) [Example 13, 4b,9b-Dihydroxy-6-phenyl-4bH-benzo[d]indeno[1,2-b]furan-10(9bH)-one]",182 to 183,8.08,–,–
"O=C1c2ccccc2C2(O)Oc3ccc([N+](=O)[O-])cc3C12O (stereo not drawn) [Example 14, 4b,9b-Dihydroxy-8-nitro-4bH-benzo[d]indeno[1,2-b]furan-10(9bH)-one]",206 to 207,> 50,–,–
"O=C1c2ccccc2C2(O)Oc3cc4ccccc4cc3C12O (stereo not drawn) [Example 15, 4b,11b-Dihydroxy-4bH-indeno[1,2-b]naphtho[2,3-d]furan-12(11 bH)-one]",220 to 221,8.57,–,–
"O=C1c2ccccc2C2(O)Oc3c(ccc4ccccc34)C12O (stereo not drawn) [Example 16, 6b,11b-Dihydroxy-6bH-indeno[1,2-b]naphtho[2,1-d]furan-7(11 bH)-one]",216 to 218,7.82,–,–
"CCCc1ccc2c(c1)C1(O)C(=O)c3ccccc3C1(O)O2 (stereo not drawn) [Example 17, 4b,9b-Dihydroxy-8-propyl-4bH-benzo[d]indeno[1,2-b]furan-10(9bH)-one]",126 to 127,7.85,–,–
"CCc1ccc2c(c1)C1(O)C(=O)c3ccccc3C1(O)O2 (stereo not drawn) [Example 18, 8-Ethyl-4b,9b-dihydroxy-4bH-benzo[d]indeno[1,2-b]furan-10(9bH)-one]",157 to 159,37.5,–,–
"CCC(C)c1ccc2c(c1)C1(O)C(=O)c3ccccc3C1(O)O2 (stereo not drawn) [Example 19, 8-sec-Butyl-4b,9b-dihydroxy-4bH-benzo[d]indeno[1,2-b]furan-10(9bH)-one]",134 to 136,8.34,–,–

SMILES,melting point [°C],CC50 ([1]; Picorana CC50) [µg/mL],EC50 [2] [µg/mL],CC50 [1] [µg/mL]
"CC(C)(C)c1ccc2c(c1)C1(O)C(=O)c3ccccc3C1(O)O2 (stereo not drawn) [Example 20, 8-tert-Butyl-4b,9b-dihydroxy-4bH-benzo[d]indeno[1,2-b]furan-10(9bH)-one]",187 to 188,7.93,–,–
"CC(C)(C)c1cccc2c1OC1(O)c3ccccc3C(=O)C21O (stereo not drawn) [Example 21, 6-tert-Butyl-4b,9b-dihydroxy-4bH-benzo[d]indeno[1,2-b]furan-10(9bH)-one]",148 to 152,32.1,–,–
"Cc1cc2c(c(C)c1C)C1(O)C(=O)c3ccccc3C1(O)O2 (stereo not drawn) [Example 22, 4b,9b-Dihydroxy-7,8,9-trimethyl-4bH-benzo[d]indeno[1,2-b]furan-10(9bH)-one]",212 to 214,8.01,–,–
"CCC(C)(C)c1ccc2c(c1)C1(O)C(=O)c3ccccc3C1(O)O2 (stereo not drawn) [Example 23, 4b,9b-Dihydroxy-8-tert-pentyl-4bH-benzo[d]indeno[1,2-b]furan-10(9bH)-one]",175 to 176,9.3,–,–
"CC(C)(C)c1cc(C(C)(C)C)c2c(c1)C1(O)C(=O)c3ccccc3C1(O)O2 (stereo not drawn) [Example 24, 6,8-di-tert-Butyl-4b,9b-dihydroxy-4bH-benzo[d]indeno[1,2-b]furan-10(9bH)-one]",200 to 203,8.8,–,–
"CC(=O)OC12Oc3c(C(C)(C)C)cc(C(C)(C)C)cc3C1(OC(C)=O)C(=O)c1ccccc12 (stereo not drawn) [Example 25, 6,8-di-tert-Butyl-10-oxo-9b,10-dihydro-4bH-benzo[d]indeno[1,2-b]furane-4b,9b-diyl diacetate]",242 to 247,> 50,–,–
"CCCCCCCCCc1ccc2c(c1)C1(O)C(=O)c3ccccc3C1(O)O2 (stereo not drawn) [Example 26, 4b,9b-Dihydroxy-8-nonyl-4bH-benzo[d]indeno[1,2-b]furan-10(9bH)-one]",108 to 110,< 4,–,–
"CCCCCCCCCCCCCCCc1ccc2c(c1)C1(O)C(=O)c3ccccc3C1(O)O2 (stereo not drawn) [Example 27, 4b,9b-Dihydroxy-8-pentadecyl-4bH-benzo[d]indeno[1,2-b]furan-10(9bH)-one]",105 to 110,43.9,–,–
"CCC(C)(C)c1cc(C(C)(C)CC)c2c(c1)C1(O)C(=O)c3ccccc3C1(O)O2 (stereo not drawn) [Example 28, 6,8-Bis-(1,1-dimethyl-propyl)-4b,9b-dihydroxy-4b,9b-dihydro-5-oxa-indeno[2,1-a]inden-10-one]",195 to 222,9.2,–,–
"CC(C)OC(=O)Nc1cccc2c1C(=O)C1(O)c3ccc(C(C)C)cc3OC21O (stereo not drawn) [Example 29, Isopropyl 4b,9b-dihydroxy-7-isopropyl-10-oxo-9b,10-dihydro-4bH-benzo[d]indeno[1,2-b]furan-1-ylcarbamate]",200 to 202,7.49,–,–
"O=C1c2ccccc2C2(O)Oc3c(ccc4c3CCCC4)C12O (stereo not drawn) [Example 31, 6b,11b-Dihydroxy-1,2,3,4,6b,11b-hexahydro-12-oxa-benzo[4,5]pentaleno[2,1-a]naphthalen-7-one]",252 to 254,8.9,–,–
"COc1ccc2c(c1)C(=O)C1(O)c3ccc(C(C)C)cc3OC21O (stereo not drawn) [Example 32, 4b,9b-Dihydroxy-7-isopropyl-2-methoxy-4b,9b-dihydro-5-oxa-indeno[2,1-a]inden-10-one]",98 to 102,8.1,–,–
"CC(C)c1ccc2c(c1)OC1(OC(=O)C(C)(C)C)c3ccccc3C(=O)C21OC(=O)C(C)(C)C (stereo not drawn) [Example 33, 7-Isopropyl-10-oxo-9b,10-dihydro-4bH-benzo[d]indeno[1,2-b]furan-4b,9b-diyl bis(2,2-dimethylpropanoate)]",153 to 157,> 50,–,–
"CC(C)c1ccc2c(c1)OC1(O)c3cccc(N)c3C(=O)C21NC(=O)c1cn2cccnc2n1 (stereo not drawn) [Example 285, N-(1-Amino-4b-hydroxy-7-isopropyl-10-oxo-9b,10-dihydro-4bH-indeno[1,2-b]benzofuran-9b-yl)imidazo[1,2-a]pyrimidine-2-carboxamide]",–,–,< 0.01,> 10
"CC(C)c1ccc2c(c1)OC1(O)c3cccc(N)c3C(=O)C21NC(=O)c1cc2ccccc2c(=O)[nH]1 (stereo not drawn) [Example 286, N-(1-Amino-4b-hydroxy-7-isopropyl-10-oxo-9b,10-dihydro-4bH-indeno[1,2-b]benzofuran-9b-yl)-1-oxo-1,2-dihydroisoquinoline-3-carboxamide]",–,4.28,< 0.01,4.04
"Cc1nc(C(=O)NC23C(=O)c4c(N)cccc4C2(O)Oc2cc(C(C)C)ccc23)c2ccccn12 (stereo not drawn) [Example 287, N-(1-Amino-4b-hydroxy-7-isopropyl-10-oxo-9b,10-dihydro-4bH-benzo[d]indeno[1,2-b]furan-9b-yl)-3-methylimidazo[1,5-a]pyridine-1-carboxamide]",–,7.01,0.036,> 10
"CC(C)c1ccc2c(c1)OC1(O)c3cccc(N)c3C(=O)C21NC(=O)c1nc2ccccc2[nH]1 (stereo not drawn) [Example 290, N-(1-Amino-4b-hydroxy-7-isopropyl-10-oxo-9b,10-dihydro-4bH-indeno[1,2-b]benzofuran-9b-yl)-1H-benzo[d]imidazole-2-carboxamide]",–,4.32,0.032,4.51
"CC(C)c1ccc2c(c1)OC1(O)c3cccc(N)c3C(=O)C21NC(=O)c1nc2cc(F)ccc2[nH]1 (stereo not drawn) [Example 291, N-(1-Amino-4b-hydroxy-7-isopropyl-10-oxo-9b,10-dihydro-4bH-indeno[1,2-b]benzofuran-9b-yl)-5-fluoro-1H-benzo[d]imidazole-2-carboxamide]",–,4.43,0.036,4.51
